Assay results reported in patent US9249129B2, “Morpholino substituted urea derivatives as mTOR inhibitors” (CELLZOME LIMITED, priority 2010, dated 2016).
Read-outs that look alike come from different tables or passages of the source.

Tests used:
[1] = tested on: S6RP serine-240/244 phosphorylation in HEK293T/17 cells; test: In vitro phospho-S6 cellular assay (pS6RP S240/244); assay type: cell-based; conditions: Homo sapiens, Table 6, 2 hours, S6RP Ser240/244, read-out: pS6 (phospho-S6 cell assay data, activity level)
Excerpt: In Vitro Phospho-S6 and Phospho-Akt Cellular Assay
Activation of mTOR signaling results in phosphorylation of several downstream targets. In cells, mTOR exists in two different protein complexes. The mTOR Complex-1 (mTORC1) phosphorylates and activates S6 Kinase 1 (S6K1) and S6 Kinase 2 (S6K2) (also known as p70S6K) which then phosphorylate S6 Ribosomal Protein (S6RP) (also known as RPS6). S6RP is phosphorylated on serine 235, serine 236, serine 240 and serine 244 by both pS6K1 and pS6K2. The mTOR Complex-2 (mTORC2) phosphorylates AKT on serine 473 which activates the AKT signaling pathway.
The assay measures a test compound's inhibition of S6RP serine-240/244 phosphorylation and inhibition of Akt serine-473 phosphorylation in human embryonic kidney derived HEK293T/17 cells (ATCC CRL-11268).
The HEK293T/17 cell line is maintained in DMEM media (Invitrogen catalogue number 41965-039) supplemented with 10% FCS at 37° C. in a 5% CO2 humidified incubator.
Cells are seeded in 96-well plates at 40,000 cells/well (pS6RP S240/244 assay) or 80,000 cells/well (pAkt 5473 assay) in 90 μl growth media (DMEM, 2% FCS). Plates are incubated for 1 hour in a humidified incubator to allow the cells to adhere. Cells are treated with 8 concentrations of test compounds or DMSO alone for controls (final DMSO concentration 0.1%) and incubated at 37° C. for 2 hours. Then 20 μl of 5× concentrated lysis buffer (750 mM NaCl, 100 mM Tris pH7.4, 5 mM EDTA, 5 mM EGTA, 5% Triton X-100) is added, plates are sealed and incubated for 15 minutes at 4° C. with gentle shaking. After cell lysis, 25 μl cell lysate is transferred to a MesoScale plate coated with an antibody to pS6RP Ser240/244 (MesoScale Discovery K150DGD-3) or an antibody to pAkt Ser 473 (MesoScale Discovery K151DGD-3). Plates have been blocked before by incubation with 150 μl MesoScale Discovery Blocking Solution-A for 1 hour at room temperature followed by washing with 150 μl 1× Tris wash buffer per well. After the transfer of the cell lysate to the MSD plate, the pS6RP (or pAkt) protein is captured on the coated antibody by incubation at room temperature for 1 hour with gentle shaking. After the capture step the plate is washed three times with 150 μl of 1× Tris wash buffer per well. Then 25 μl detection antibody conjugated with a Sulfo-Tag is added and incubated for 1 hour at room temperature with gentle shaking. Subsequently the antibody solution is removed and the plate is washed 3 times with 150 μl 1× Tris wash buffer per well and 150 μl Read buffer is added. The plates are analysed on a MSD 2400 Plate Reader (MesoScale Discovery). Data analysis is performed using nonlinear regression for a sigmoidal dose-response with a variable slope.

mTOR = target: T1, mTOR (Homo sapiens, UniProt P42345); test: mTOR kinobeads assay (dot blot detection); assay type: binding
T1 construct: endogenous in cells; host or cells: Jurkat cells (ATCC TIB-152, clone E6-1), lysate
Description: (§1) The compounds of the present invention as described were tested in the mTOR kinobeads assay as described below. Briefly, test compounds (at various concentrations) and the affinity matrix (1:1 mixture of beads with immobilized phenylthiazole ligand 1 and beads with immobilized phenylmorpholin-chromen ligand; WO 2009/098021) were added to cell lysate aliquots and allowed to bind to the proteins in the lysate sample. After the incubation time the beads with captured proteins were separated from the lysate. Bound proteins were then eluted and the presence of mTOR, PI3K delta (PI3 Kd) and DNA-dependent protein kinase (DNA-PK) was detected and quantified using a specific antibody in a dot blot procedure and the Odyssey infrared detection system. Dose response curves for individual kinases were generated and IC50 values calculated. Kinobeads assays for PI3 kinases (WO-A 2008/015013) and for kinase selectivity profiling (WO 2009/098021) have been previously described.
(§2) The affinity matrix (beads with immobilized phenylmorpholin-chromen ligand) was washed two times with 15 ml of 1×DP buffer containing 0.2% NP40 (IGEPAL® CA-630, Sigma, #13021) and then resupended in 5.5 ml of 1×DP buffer containing 0.2% NP40 (10% beads slurry).
(§3) 5×DP buffer: 250 mM Tris-HCl pH 7.4, 25% Glycerol, 7.5 mM MgCl2, 750 mM NaCl, 5 mM Na3VO4, filter the 5×-lysis buffer through 0.22 μm filter and store in aliquots at −80° C. The 5×DP buffer is diluted to 1×DP buffer containing 1 mM DTT and 25 mM NaF.
(§4) Stock solutions of test compounds were prepared in DMSO. In a 96 well plate 30 μl solution of diluted test compounds at 5 mM in DMSO were prepared. Starting with this solution a 1:3 dilution series (9 steps) was prepared. For control experiments (no test compound) a buffer containing 2% DMSO was used. Compound CZC00018052 served as a positive control (PI-103; Calbiochem catalogue number 528100).
(§5) Jurkat cells (ATCC catalogue number TIB-152 Jurkat, clone E6-1) were grown in 1 litre Spinner flasks (Integra Biosciences, #182101) in suspension in RPMI 1640 medium (Invitrogen, #21875-034) supplemented with 10% Fetal Bovine Serum (Invitrogen) at a density between 0.15×10^6 and 1.2×10^6 cells/ml. Cells were harvested by centrifugation, washed once with 1×PBS buffer (Invitrogen, #14190-094) and cell pellets were frozen in liquid nitrogen and subsequently stored at −80° C.
(§6) Jurkat cells were homogenized in a Potter S homogenizer in lysis buffer: 50 mM Tris-HCl, 0.8% NP40, 5% glycerol, 150 mM NaCl, 1.5 mM MgCl2, 25 mM NaF, 1 mM sodium vanadate, 1 mM DTT, pH 7.5. One complete EDTA-free tablet (protease inhibitor cocktail, Roche Diagnostics, 1873580) per 25 ml buffer was added. The material was dounced 10 times using a mechanized POTTER S, transferred to 50 ml falcon tubes, incubated for 30 minutes on ice and spun down for 10 min at 20,000 g at 4° C. (10,000 rpm in Sorvall SLA600, precooled). The supernatant was transferred to an ultracentrifuge (UZ)-polycarbonate tube (Beckmann, 355654) and spun for 1 hour at 100.000 g at 4° C. (33.500 rpm in Ti50.2, precooled). The supernatant was transferred again to a fresh 50 ml falcon tube, the protein concentration was determined by a Bradford assay (BioRad) and samples containing 50 mg of protein per aliquot were prepared. The samples were immediately used for experiments or frozen in liquid nitrogen and stored frozen at −80° C.
(§7) Jurkat cell lysate (approximately 50 mg protein per plate) was thawed in a water bath at room temperature and then kept on ice. To the thawed cell lysate 1×DP 0.8% NP40 buffer containing protease inhibitors (1 tablet for 25 ml buffer; EDTA-free protease inhibitor cocktail; Roche Diagnostics 1873580) was added in order to reach a final protein concentration of 5 mg/ml total protein. The diluted cell lysate was stored on ice. […]

PI3K delta (PI3Kd) = target: T2, PI3K delta (PI3Kd) (Homo sapiens, UniProt O00329); test: kinobeads assay, PI3K delta (dot blot detection); assay type: binding
T2 construct: endogenous in cells; host or cells: Jurkat cells (ATCC TIB-152, clone E6-1), lysate
Description: as §1, §2, §3, §4, §5, §6, §7

[2] = target: T3, DNA-dependent protein kinase (DNA-PK) (Homo sapiens, UniProt P78527); test: kinobeads assay, DNA-PK (dot blot detection); assay type: binding
T3 construct: endogenous in cells; host or cells: Jurkat cells (ATCC TIB-152, clone E6-1), lysate
T3 sequence (P78527 whole entry): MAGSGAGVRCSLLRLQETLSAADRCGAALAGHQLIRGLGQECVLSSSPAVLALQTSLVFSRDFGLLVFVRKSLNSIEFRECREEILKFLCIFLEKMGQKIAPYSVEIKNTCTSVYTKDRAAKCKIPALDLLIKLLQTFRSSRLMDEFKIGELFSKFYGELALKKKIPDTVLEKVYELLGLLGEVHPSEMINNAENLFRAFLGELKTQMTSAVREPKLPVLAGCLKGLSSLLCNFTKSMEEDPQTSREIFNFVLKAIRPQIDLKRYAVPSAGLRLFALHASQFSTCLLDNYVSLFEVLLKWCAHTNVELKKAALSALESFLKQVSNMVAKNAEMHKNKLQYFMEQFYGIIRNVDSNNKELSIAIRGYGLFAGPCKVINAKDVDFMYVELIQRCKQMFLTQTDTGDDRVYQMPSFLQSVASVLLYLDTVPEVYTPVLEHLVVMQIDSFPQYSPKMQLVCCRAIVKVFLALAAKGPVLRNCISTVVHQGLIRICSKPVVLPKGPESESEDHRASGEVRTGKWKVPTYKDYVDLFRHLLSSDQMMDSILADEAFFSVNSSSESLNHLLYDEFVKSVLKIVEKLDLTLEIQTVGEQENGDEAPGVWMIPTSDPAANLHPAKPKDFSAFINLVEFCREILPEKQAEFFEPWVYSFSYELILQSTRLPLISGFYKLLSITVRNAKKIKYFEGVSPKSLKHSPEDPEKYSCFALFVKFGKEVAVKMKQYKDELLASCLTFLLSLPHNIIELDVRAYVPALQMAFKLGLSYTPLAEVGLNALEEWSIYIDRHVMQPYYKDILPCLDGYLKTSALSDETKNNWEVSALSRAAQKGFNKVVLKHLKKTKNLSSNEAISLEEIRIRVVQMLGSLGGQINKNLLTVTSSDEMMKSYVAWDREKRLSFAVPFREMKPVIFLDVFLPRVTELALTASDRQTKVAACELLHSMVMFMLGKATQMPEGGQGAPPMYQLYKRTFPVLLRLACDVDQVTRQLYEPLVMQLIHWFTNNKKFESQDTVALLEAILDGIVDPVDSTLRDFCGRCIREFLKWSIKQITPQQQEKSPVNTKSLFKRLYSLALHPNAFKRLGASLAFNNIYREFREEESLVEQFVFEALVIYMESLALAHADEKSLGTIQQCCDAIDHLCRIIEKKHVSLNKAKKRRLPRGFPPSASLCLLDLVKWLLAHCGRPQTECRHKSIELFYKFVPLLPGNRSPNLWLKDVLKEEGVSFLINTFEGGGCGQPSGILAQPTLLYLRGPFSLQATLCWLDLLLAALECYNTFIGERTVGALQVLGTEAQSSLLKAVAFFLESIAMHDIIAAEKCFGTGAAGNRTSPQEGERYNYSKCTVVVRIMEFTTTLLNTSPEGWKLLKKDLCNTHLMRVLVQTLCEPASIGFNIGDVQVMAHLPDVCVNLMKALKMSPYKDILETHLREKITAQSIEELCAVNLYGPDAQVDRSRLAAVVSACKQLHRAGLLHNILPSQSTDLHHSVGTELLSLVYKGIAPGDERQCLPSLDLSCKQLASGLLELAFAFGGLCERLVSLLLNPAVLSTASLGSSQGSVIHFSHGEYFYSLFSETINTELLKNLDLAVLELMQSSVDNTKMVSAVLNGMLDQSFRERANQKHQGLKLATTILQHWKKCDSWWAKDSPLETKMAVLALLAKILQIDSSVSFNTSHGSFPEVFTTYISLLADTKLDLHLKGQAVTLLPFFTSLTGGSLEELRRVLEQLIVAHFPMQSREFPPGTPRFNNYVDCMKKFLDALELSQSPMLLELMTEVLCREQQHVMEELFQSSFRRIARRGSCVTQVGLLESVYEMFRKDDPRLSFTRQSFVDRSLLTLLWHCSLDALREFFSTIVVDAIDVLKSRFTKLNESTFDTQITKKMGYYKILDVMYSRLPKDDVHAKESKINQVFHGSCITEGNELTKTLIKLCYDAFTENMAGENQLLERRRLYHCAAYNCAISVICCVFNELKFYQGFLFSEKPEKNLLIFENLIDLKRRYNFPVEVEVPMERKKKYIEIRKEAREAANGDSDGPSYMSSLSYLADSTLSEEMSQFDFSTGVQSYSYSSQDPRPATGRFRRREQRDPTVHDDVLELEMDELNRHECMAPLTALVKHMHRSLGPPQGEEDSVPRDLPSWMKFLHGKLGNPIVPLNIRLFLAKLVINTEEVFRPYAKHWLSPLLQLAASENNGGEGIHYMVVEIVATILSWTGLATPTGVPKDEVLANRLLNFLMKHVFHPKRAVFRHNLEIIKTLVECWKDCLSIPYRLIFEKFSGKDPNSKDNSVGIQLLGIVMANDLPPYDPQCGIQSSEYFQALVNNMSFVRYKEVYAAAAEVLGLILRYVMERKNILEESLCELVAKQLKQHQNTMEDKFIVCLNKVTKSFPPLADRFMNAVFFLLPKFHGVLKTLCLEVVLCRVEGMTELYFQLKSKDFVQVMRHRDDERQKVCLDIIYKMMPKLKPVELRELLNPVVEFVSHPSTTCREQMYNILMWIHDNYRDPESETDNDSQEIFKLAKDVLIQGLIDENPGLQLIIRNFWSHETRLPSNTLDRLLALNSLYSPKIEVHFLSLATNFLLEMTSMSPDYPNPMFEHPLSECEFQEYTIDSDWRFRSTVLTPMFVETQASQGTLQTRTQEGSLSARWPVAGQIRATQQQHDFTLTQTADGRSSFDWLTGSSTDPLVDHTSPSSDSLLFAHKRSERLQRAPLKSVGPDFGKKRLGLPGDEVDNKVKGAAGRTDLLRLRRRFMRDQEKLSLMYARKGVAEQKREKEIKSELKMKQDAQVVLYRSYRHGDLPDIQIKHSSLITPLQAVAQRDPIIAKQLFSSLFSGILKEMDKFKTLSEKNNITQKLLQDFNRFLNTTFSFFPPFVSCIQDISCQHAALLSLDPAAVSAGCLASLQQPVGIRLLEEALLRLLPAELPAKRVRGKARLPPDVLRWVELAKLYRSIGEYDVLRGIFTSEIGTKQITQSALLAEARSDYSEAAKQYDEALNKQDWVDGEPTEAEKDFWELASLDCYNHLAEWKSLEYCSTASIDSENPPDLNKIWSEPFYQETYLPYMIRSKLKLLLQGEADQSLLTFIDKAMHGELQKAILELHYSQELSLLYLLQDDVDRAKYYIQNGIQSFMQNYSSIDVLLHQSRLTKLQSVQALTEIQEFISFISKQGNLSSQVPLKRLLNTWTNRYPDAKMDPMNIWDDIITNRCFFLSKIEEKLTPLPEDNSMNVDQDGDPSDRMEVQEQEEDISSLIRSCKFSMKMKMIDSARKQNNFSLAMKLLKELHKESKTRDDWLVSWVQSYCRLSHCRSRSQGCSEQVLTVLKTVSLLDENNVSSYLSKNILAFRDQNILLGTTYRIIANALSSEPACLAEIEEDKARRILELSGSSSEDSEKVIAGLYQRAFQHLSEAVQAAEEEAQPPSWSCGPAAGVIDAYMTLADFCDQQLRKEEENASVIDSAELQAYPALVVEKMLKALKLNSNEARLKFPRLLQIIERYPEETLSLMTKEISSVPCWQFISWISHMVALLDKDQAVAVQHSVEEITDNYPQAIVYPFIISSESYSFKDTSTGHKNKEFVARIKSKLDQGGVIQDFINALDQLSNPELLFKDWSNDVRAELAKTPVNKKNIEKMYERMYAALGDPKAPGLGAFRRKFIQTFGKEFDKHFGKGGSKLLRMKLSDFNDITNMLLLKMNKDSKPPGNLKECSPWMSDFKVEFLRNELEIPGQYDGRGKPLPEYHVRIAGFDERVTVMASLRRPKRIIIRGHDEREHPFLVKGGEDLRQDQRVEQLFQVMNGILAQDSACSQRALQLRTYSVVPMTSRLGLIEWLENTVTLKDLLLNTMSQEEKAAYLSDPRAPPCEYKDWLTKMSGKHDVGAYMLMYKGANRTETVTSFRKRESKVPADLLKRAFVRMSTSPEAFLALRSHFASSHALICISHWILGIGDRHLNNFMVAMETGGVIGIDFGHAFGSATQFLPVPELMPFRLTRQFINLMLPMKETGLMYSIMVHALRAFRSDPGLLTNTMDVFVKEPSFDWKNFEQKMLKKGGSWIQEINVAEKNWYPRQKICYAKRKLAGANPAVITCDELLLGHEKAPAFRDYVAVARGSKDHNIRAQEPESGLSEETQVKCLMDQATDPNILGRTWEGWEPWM
Description: as §1, §2, §3, §4, §5, §6, §7

PI3Kγ = target: T4, PI3Kγ (Homo sapiens, UniProt P48736); test: kinobeads assay, PI3K gamma (dot blot detection); assay type: binding; conditions: Table 4, read-out: Inhibition values (IC50) PI3Kg
T4 construct: endogenous in cells; host or cells: Jurkat cells (ATCC TIB-152) lysate, the only lysate described

PI3Kβ = target: T5, PI3Kβ (Homo sapiens, UniProt P42338); test: kinobeads assay, PI3K beta (dot blot detection); assay type: binding; conditions: Table 4, read-out: Inhibition values (IC50) PI3Kb
T5 construct: endogenous in cells; host or cells: Jurkat cells (ATCC TIB-152) lysate, the only lysate described

PI3Kα = target: T6, PI3Kα (Homo sapiens, UniProt P42336); test: kinobeads assay, PI3K alpha (dot blot detection); assay type: binding; conditions: Table 4, read-out: Inhibition values (IC50) PI3Ka
T6 construct: endogenous in cells; host or cells: Jurkat cells (ATCC TIB-152) lysate, the only lysate described

[3] = Table 2, Jurkat cell lysate, read-out: Inhibition values (IC50) mTor
[4] = Table 4, read-out: Inhibition values (IC50) mTOR
[5] = Table 2, Jurkat cell lysate, read-out: Inhibition values (IC50) PI3Kd
[6] = Table 4, read-out: Inhibition values (IC50) PI3Kd
[7] = Table 2, Jurkat cell lysate, read-out: Inhibition values (IC50) DNAPK
[8] = Table 4, read-out: Inhibition values (IC50) DNAPK

Compound | IC50 (mTOR; [3]) [µM] | IC50 (mTOR; [4]) [µM] | IC50 (PI3K delta (PI3Kd); [5]) [µM] | IC50 (PI3K delta (PI3Kd); [6]) [µM] | IC50 [2, 7] [µM] | IC50 [2, 8] [µM] | IC50 (PI3Kγ) [µM] | IC50 (PI3Kβ) [µM] | IC50 (PI3Kα) [µM] | IC50 [1] [µM]
C[C@H]1COCCN1c1cc(-c2cncc(S(C)(=O)=O)c2)nc(-c2ccc(NC(=O)NC3CC3)cc2)n1 [Example 22, (S)-1-cyclopropyl-3-(4-(4-(3-methylmorpholino)-6-(5-(methylsulfonyl)pyridin-3-yl)pyrimidin-2-yl)phenyl)urea] | 1 to 10 | 1 to 10 | ≥ 10 | ≥ 10 | ≥ 10 | ≥ 10 |  |  |  | 0.1 to 1
CNC(=O)Nc1ccc(-c2nccc(N3CCOC[C@@H]3C)n2)cc1 [Example 34, (S)-1-methyl-3-(4-(4-(3-methylmorpholino)pyrimidin-2-yl)phenyl)urea] | 1 to 10 | 1 to 10 | ≥ 10 | ≥ 10 | ≥ 10 | ≥ 10 |  |  |  | 0.1 to 1
CC(=O)NCCNC(=O)Nc1ccc(-c2cc(-c3cc(F)ccc3S(C)(=O)=O)nc(N3CCOC[C@@H]3C)n2)cc1 [Example 85, (S)—N-(2-(3-(4-(6-(5-fluoro-2-(methylsulfonyl)phenyl)-2-(3-methylmorpholino)pyrimidin-4-yl)phenyl)ureido)ethyl)acetamide] |  | 1 to 10 |  | ≥ 10 |  | ≥ 10 | ≥ 10 | ≥ 10 | ≥ 10 | 

Now from value to compound, other results behind:

IC50 (mTOR; [3]) [µM] | IC50 (mTOR; [4]) [µM] | IC50 (PI3K delta (PI3Kd); [5]) [µM] | IC50 (PI3K delta (PI3Kd); [6]) [µM] | IC50 [2, 7] [µM] | IC50 [2, 8] [µM] | IC50 (PI3Kγ) [µM] | IC50 (PI3Kβ) [µM] | IC50 (PI3Kα) [µM] | Compound | IC50 [1] [µM]
1 to 10 | 1 to 10 | ≥ 10 | ≥ 10 | ≥ 10 | ≥ 10 | ≥ 10 | ≥ 10 | ≥ 10 | C[C@H]1COCCN1c1cc(-c2cncc(F)c2)nc(-c2ccc(NC(=O)NC3CC3)cc2F)n1 [Example 63, (S)-1-cyclopropyl-3-(3-fluoro-4-(4-(5-fluoropyridin-3-yl)-6-(3-methylmorpholino)pyrimidin-2-yl)phenyl)urea] | 0.1 to 1
0.1 to 1 | 0.1 to 1 | ≥ 10 | ≥ 10 | ≥ 10 | ≥ 10 | ≥ 10 | ≥ 10 | ≥ 10 | C[C@H]1COCCN1c1cc(-c2cc(F)ccc2S(C)(=O)=O)nc(-c2ccc(NC(=O)NCCO)cc2F)n1 [Example 72, (S)-1-(3-fluoro-4-(4-(5-fluoro-2-(methylsulfonyl)phenyl)-6-(3-methylmorpholino)pyrimidin-2-yl)phenyl)-3-(2-hydroxyethyl)urea] | 0.1 to 1
0.1 to 1 | 0.1 to 1 | ≥ 10 | ≥ 10 | 1 to 10 | 1 to 10 | ≥ 10 | ≥ 10 | ≥ 10 | CCNC(=O)Nc1ccc(-c2nccc(N3CC4CCC(C3)O4)n2)cc1 [Example 49, 1-(4-(4-(8-oxa-3-azabicyclo[3.2.1]octan-3-yl)pyrimidin-2-yl)phenyl)-3-ethylurea] | 0.1 to 1
0.1 to 1 | 0.1 to 1 | ≥ 10 | ≥ 10 | ≥ 10 | ≥ 10 | ≥ 10 | ≥ 10 | ≥ 10 | CC(O)CNC(=O)Nc1ccc(-c2cc(-c3cc(F)ccc3S(C)(=O)=O)nc(N3CCOC[C@@H]3C)n2)cc1 (stereo partly drawn) [Example 71, 1-(4-(6-(5-fluoro-2-(methylsulfonyl)phenyl)-2-((S)-3-methylmorpholino)pyrimidin-4-yl)phenyl)-3-(2-hydroxypropyl)urea] | < 0.1
< 0.1 | < 0.1 | ≥ 10 | ≥ 10 | 1 to 10 | 1 to 10 | ≥ 10 | ≥ 10 | ≥ 10 | O=C(NCCO)Nc1ccc(-c2nccc(N3CC4CCC(C3)O4)n2)cc1 [Example 50, 1-(4-(4-(8-oxa-3-azabicyclo[3.2.1]octan-3-yl)pyrimidin-2-yl)phenyl)-3-(2-hydroxyethyl)urea] | 0.1 to 1
